The test system of data set [1] is TNF-α production in rat microglial cell cultures. Nature of the data set: TNF-α ELISA in rat microglial cell cultures. In kind it is cell-based.
Data set [2] deals with IL-1β production in rat microglial cell cultures. The experiment in a line: IL-1β ELISA in rat microglial cell cultures. In kind it is cell-based.
In data set [3] the test system is human neutrophils. Nature of the data set: Ca2+ mobilization in human neutrophils. In kind it is cell-based. (Calcium flux is commonly read through the fluorescence of an indicator in the cells.)
Data set [4] can be described thus: Stability assays in rat liver microsomes. In kind it is in vitro ADME. The conditions noted are these: pH 7.4, Metabolic stability (% remaining), percent of parent compound remaining after 30-min incubation. For orientation: Liver microsomes are a subcellular fraction often used to study metabolism.
For data set [5], the system named is rat primary microglial cells. Nature of the data set: Lactate dehydrogenase. In kind it is cell-based.
The nature of data set [6]: Bidirectional transport across hCMEC/D3 cell monolayer. In kind it is in vitro ADME, human. Conditions: human.
Data set [7] deals with hCMEC/D3 cells. The data set is described as above. In kind it is in vitro ADME, human. Conditions: 100 μM, 2 h.
Data set [8] relates to NO production in rat microglial cell cultures. Nature of the data set: NO release assay. In kind it is cell-based.
The test system of data set [9] is rat primary microglial cells. Nature of the data set: MTT cell viability test in rat primary microglial cell cultures. In kind it is cell-based. Background: Tetrazolium dyes change colour on reduction, which living cells bring about.
Setting [10] is: LPS-stimulated, pre-treatment with FPR2 antagonist WRW4.
The mark [11] stands for this setting: basal conditions, agonists 0.5 μM-10 μM.
Setting [12] is: basal conditions, 0.5–10 μM, 24 h.

`N#Cc1ccc(C[C@H](NC(=O)Nc2ccc(F)cc2)C(=O)NCC2(c3ccc(F)c(Cl)c3)CC2)cc1` [(S)-17, (S)-3-(4-Cyanophenyl)-N-[[1-(3-chloro-4-fluorophenyl)cyclopropyl]methyl]-2-[3-(4-fluorophenyl)ureido]propanamide]: in [1] (LPS-stimulated, 0.5 to 10 μM), the “Effect on LPS-evoked TNF-α production” value was “effectively decrease LPS-evoked cytokine production”. Besides, the “Block by WRW4 of effect on TNF-α” value in [1] (setting [10]) is “able to block the effect”. Also, the “Effect on TNF-α production” value in data set [1] (setting [11]) was “did not induce any change”. The “Effect on LPS-evoked IL-1β production” value in data set [2] (LPS-stimulated, 0.5 to 10 μM) is reported as “effectively decrease LPS-evoked cytokine production”. Also, the “Block by WRW4 of effect on IL-1β” value in [2] (setting [10]) was “able to block the effect”. For the same compound, in data set [2] (setting [11]), the “Effect on IL-1β production” value is listed as “did not induce any change”. Besides, the “EC50, μM Neutrophils” value in data set [3] is given as “submicromolar range”. In addition, the amount remaining at 0.5 h, 10 μM in data set [4] was more than 20%. The “Effect on LPS-induced cell death (LDH release)” value in data set [5] (LPS-stimulated, pre-treatment 1 μM and 5 μM) is on record as “effectively blocked LPS-induced cell death processes”. Also, the “Effect on LDH release (cell death)” value in data set [5] (basal conditions, 50 μM) is “significant increase in death processes”. For the same compound, the “Effect on LDH release” value in data set [5] (setting [12]) was “None of the compounds induced significant effects”. The efflux ratio at 2 h, 100 μM in [6] was less than 3. The compound further came in with a PappAB in [7] (apical-to-basolateral transport) of 14552.1 ×10⁻⁶ cm/s. In [7] (basolateral-to-apical transport), this compound showed a PappBA of 37598.1 ×10⁻⁶ cm/s. The “Effect on LPS-increased NO level” value in data set [8] (LPS-stimulated, (S)-10 at 5 μM and 10 μM) is reported as “no effect was observed”. The “Effect on NO level” value in data set [8] (basal conditions) is recorded as “did not induce any change in NO level”. Further, the “Effect on metabolic activity (MTT) in LPS-stimulated cells” value in [9] (LPS-stimulated) is recorded as “no effect was observed on metabolic activity”. For the same compound, in [9] (basal conditions, 50 μM), the “Effect on conversion of MTT dye” value is “decreased the conversion of MTT dye”. The “Effect on metabolic activity (MTT)” value in data set [9] (setting [12]) is “None of the compounds induced significant effects”.

The term share remaining denotes what is left of the initial amount, in per cent. As usually defined, the efflux ratio is a quotient of directional permeabilities that is used to spot active efflux.

These data come from paper PMC5693244 (European journal of medicinal chemistry, 2017).
